Experimental data from EP3008041B1, “3-CARBAMOYL-1-METHYL[…], PROCESS FOR ITS PREPARATION AND ITS USE” (Uniwersytet Jagiellonski, priority 2013, dated 2014).
Read-outs that look alike come from different tables or passages of the source.

Assays:
[1] = hypertensive (2K1C) rats
[2] = pharmacokinetics of MNA in rat plasma after single intravenous administration; format: in vivo, rats; conditions: 100 mg/kg
Method: (§1) A method using high performance liquid chromatography combined with tandem mass spectrometry (LC/ESI-MS/MS) was developed and validated to determine concentrations of 1-methylnicotinamide (MNA) in rat plasma. […] The pharmacokinetic parameters were determined by a non-compartmental model using Phoenix WinNonlin software (Pharsight, Sannyvale, CA, USA).

[3] = Method: The complete blood count was assessed approximately 2 minutes after collection in fresh citrated blood using an automatic Horiba ABC Vet device. The following parameters were assessed: white blood cell count (WBC), red blood cell count (RBC), haemoglobin (HGB), haematocrit (HCT), mean corpuscular volume (MCV), mean corpuscular haemoglobin (MCH), mean corpuscular haemoglobin concentration (MCHC) and platelet count (PLT).
Remark: listed apart in the source
platelets = conditions: hypertensive rats after arterial thrombosis, 3 days per os twice a day (FIG. 2)
Method: The blood was diluted with 0.9% NaCl at a ratio of 1:1 and stirred in an aggregation cuvette at 1200 rpm. Samples of the stirred blood were collected after 20, 40 and 60 min and at "0" time and mixed with a cold solution of ASA (final concentration: 500 µM) at a ratio of 1:1. In these samples, TxB2 was determined using the ELISA assay, according to the manual provided by the manufacturer of the reagent kit.

fibrin = conditions: hypertensive (2K1C) rats, 30 mg/kg i.v.
normotensive rats = conditions: 30 mg/kg i.v., single dose 10 min before induction of thrombosis
Method: The normotensive and hypertensive rats were then anesthetised with pentorbital (40 mg/kg, i.p.). After removing the skin in the neck region, an approximately 0.5 cm long section of the left common carotid artery was isolated. To avoid haemorrhaging, the isolation was performed by tearing the surrounding tissues of the artery without the use of sharp instruments. The method of arterial thrombosis (according to Schumacher et al., 1996) with own modification (Kramkowski et al., 2012) involves damage to the endothelium isolated from a section of the artery by electric current (1 mA, 5-15 V, 10 min.). The anode is a stainless steel wire with a bent hook-shaped tip placed in a holder to remain stable during the experiment. Its tip was placed under the artery. A piece of parafilm was placed under the artery to keep it isolated. The cathode was a needle inserted subcutaneously in the hind limb region. Once the stimulation is completed, the formation of thrombus lasts 45 minutes. After this time, the artery was ligated at both sides of the thrombus, and the damaged fragment containing the thrombus was excised. The thrombus was quantitatively extracted from the artery and transferred to a previously tared microscope cover slip. The thrombi were allowed to dry (at room temperature and average humidity) and weighed not earlier than after 24 hours.

[4] = pharmacokinetics of MNA in rat plasma after single intragastric administration; format: in vivo, rats; conditions: 100 mg/kg; for AUC0→∞ / Cmax / F / MRT / t0.5 / tmax: MNA in rat plasma, single intragastric administration
Method: as §1

[5] = TG technique under a nitrogen atmosphere
Method: Thermal stability was determined using the TG technique under a nitrogen atmosphere (with the use of the Mettler Toledo Star TGA/DSC 1 device).

[6] = system: plasma coagulation system
Method: Coagulation parameters: prothrombin time (PT), activated partial thromboplastin time (aPTT), fibrinogen concentration by Caluss and the prothrombin time percentage ratio (Quick index) were assessed in frozen plasma (-80°C) using a Caog-Chrom 3003 Bio-ksel Grudzi ? dz device.

[7] = colour change from pale yellow to brown
[8] = hypertensive (2K1C) rats, 30 mg/kg i.v.
[9] = hypertensive (2K1C) rats, 30 mg/kg p.o.
[10] = normotensive rats, 10 mg/kg i.v.
[11] = normotensive rats, 30 mg/kg i.v.
[12] = normotensive rats, 100 mg/kg i.v.

C[n+]1cccc(C(N)=O)c1.O=N[O-] [MNANO2, 3-carbamoyl-1-methylpyridinium nitrite]
Concentration of MNA in plasma after collecting thrombus ([1]; 30 mg/kg i.v.): 8.72 ± 4.90 µM | Concentration of MNA in plasma after collecting thrombus ([1]; 30 mg/kg p.o.): 5.76 ± 3.78 µM | AUC0→∞ [2]: 6,948,716 ± 1,810,664 µg·min/L | Cl [2]: 0.9 ± 0.18 L/h/kg | Co [2]: 138,078 ± 33,208 µg/L | Vss [2]: 0.63 ± 0.1 L/kg | t0.5 [2]: 61.7 ± 19.6 min | HCT [3, 8]: 38.35±0.49% | HGB [3, 8]: 12.27 ± 0.16 g/dL | MCH [3, 8]: 17.51±0.26 pg per cell | MCHC [3, 8]: 31.65 ± 0.21 g/dL | MCV [3, 8]: 54.86 ± 0.60 fL | PLT [3, 8]: 621±18 103/µL | RBC [3, 8]: 7.36±0.19 106/µL | WBC [3, 8]: 2.87±0.35 106/µL | HCT [3, 9]: 40.07±0.03% | HGB [3, 9]: 13.23 ± 0.24 g/dL | MCH [3, 9]: 18.77±0.71 pg per cell | MCHC [3, 9]: 32.97 ± 0.58 g/dL | MCV [3, 9]: 57.00 ± 1.53 fL | PLT [3, 9]: 630±12 103/µL | RBC [3, 9]: 7.05±0.18 106/µL | WBC [3, 9]: 2.93±0.26 106/µL | HCT [3, 10]: 30.03±1.26% | HGB [3, 10]: 12.15 ± 0.26 g/dL | MCH [3, 10]: 25.05±0.53 pg per cell | MCHC [3, 10]: 40.93 ± 1.00 g/dL | MCV [3, 10]: 61.25 ± 0.25 fL | PLT [3, 10]: 493±17 10^3/µl | RBC [3, 10]: 4.90±0.18 106/µl | WBC [3, 10]: 1.95±0.35 106/µl | HCT [3, 11]: 29.07±1.61% | HGB [3, 11]: 12.30 ± 0.26 g/dL | MCH [3, 11]: 25.73±0.92 pg per cell | MCHC [3, 11]: 42.40 ± 1.32 g/dL | MCV [3, 11]: 60.68 ± 0.33 fL | PLT [3, 11]: 489±23 10^3/µl | RBC [3, 11]: 4.80±0.29 106/µl | WBC [3, 11]: 1.77±0.43 106/µl | HCT [3, 12]: 33.33±1.31% | HGB [3, 12]: 12.67 ± 0.47 g/dL | MCH [3, 12]: 25.53±0.48 pg per cell | MCHC [3, 12]: 37.97 ± 0.18 g/dL | MCV [3, 12]: 62.00 ± 1.16 fL | PLT [3, 12]: 566±56 10^3/µl | RBC [3, 12]: 5.38±0.21 106/µl | WBC [3, 12]: 1.12±0.19 106/µl | solubility (DMSO): soluble | solubility (diethyl ether): not soluble | solubility (ethanol): soluble | solubility (hexane): not soluble | solubility (methanol): soluble | solubility (water): soluble | thromboxane B2 (TxB2) production by platelets ex vivo (platelets): inhibition of thromboxane B2 (TxB2) production | Generation of fibrin (AUC) (fibrin): 186.00±10.23 | Thrombus weight (normotensive rats): 0.78 ± 0.05 mg | AUC0→∞ [4]: 638,056 ± 167,631 µg·min/L | Cmax [4]: 8,881 ± 5,506 µg/L | F [4]: 9.18% | MRT [4]: 232 ± 38.3 min | t0.5 [4]: 178.4 ± 12.2 min | tmax [4]: 15 ± 10 min | concentration in rat plasma compared to MNACl administration ([4]; intragastric administration): three times higher | time of occurrence of the maximum concentration compared to MNACl administration ([4]; intragastric administration): four times shorter | Tonset [5]: 195 °C | Tonset5% [5]: 170 °C | APTT [6, 8]: 18.46 ± 0.81 s | Fglevel [6, 8]: 2.36 ± 0.13 ng/mL | PT [6, 8]: 17.40 ± 0.69 s | QUICK [6, 8]: 63.50±5.04 | APTT [6, 9]: 17.79 ± 0.62 s | Fglevel [6, 9]: 2.61 ± 0.10 ng/mL | PT [6, 9]: 18.16 ± 0.47 s | QUICK [6, 9]: 62.00±4.01 | APTT [6, 10]: 2.00 ± 2.68 s | Fglevel [6, 10]: 2.04 ± 0.09 ng/mL | PT [6, 10]: 18.23 ± 0.68 s | QUICK [6, 10]: 61.75±5.42 | APTT [6, 11]: 25.67 ± 6.07 s | Fglevel [6, 11]: 2.15 ± 0.28 ng/mL | PT [6, 11]: 18.10 ± 0.81 s | QUICK [6, 11]: 63.00±7.57 | APTT [6, 12]: 26.27 ± 2.89 s | Fglevel [6, 12]: 1.96 ± 0.11 ng/mL | PT [6, 12]: 19.17 ± 0.27 s | QUICK [6, 12]: 53.33±1.67 | stability of aqueous solutions [7]: not stable over time

C[n+]1cccc(C(N)=O)c1.[Cl-] [MNACl, 3-carbamoyl-1-methylpyridinium chloride, reference compound]
AUC0→∞ [2]: 4,362,231 ± 999,203 µg·min/L | Co [2]: 141,311 ± 56,500 µg/L | clearance [2]: 1.44 ± 0.3 L/h/kg | t0.5 [2]: 162.5 ± 76.2 min | Vd ([2]; read-out: Vss): 1.06 ± 0.35 L/kg | MRT ([2]; rat, plasma, iv): ~43 min | AUC0→∞ [4]: 407,132 ± 164,906 µg·min/L | F [4]: 9.33% | t0.5 [4]: 247.4 ± 201 min | Cmax ([4]; po, read-out: Cmax): 2.81 µg/mL | MRT ([4]; po, read-out: MRT (converted)): 359 min | tmax ([4]; po, read-out: tmax (converted)): 57.5 min
